Among the data in a melting point compilation (Tetko et al.; mined from patent text by program, amines drawn as free bases though some values may be those of a salt) are melting point values, retold here.

Usually melting point stands for the temperature, or range, at which the solid turns liquid.

Structures are written as SMILES.

`COC(=O)C1=C(O)c2ccccc2S(=O)(=O)N1C` registered a melting point of 163 to 165 °C. The result for `O=C(c1ccc(-c2ccncc2)cc1)N1CCN(S(=O)(=O)c2nc3ccc(Cl)cc3[nH]2)CC1` reads 242 to 244 °C.

Turning to `Cc1[nH]c2ccc(O)cc2c1C(=O)NC1CCN(CCCc2ccccc2)CC1`, the melting point was 181 to 184 °C. In turn, `Nc1cc(C(F)(F)F)cnc1N` returned a melting point of 97 to 99 °C. The compound `CCCCc1nc2c(N)nc3ccccc3c2n1CCCCCCCCNS(C)(=O)=O` registered a melting point of 121 to 124 °C. `COc1nc(C(=O)O)ccc1C#N` showed a melting point of 235 to 237 °C. For the compound `CS(=O)(=O)c1ccc(-c2cnn(C=C(F)C(F)(F)C(F)(F)F)c(=O)c2-c2ccc(F)cc2)cc1`, the melting point fell in the range of 167 to 169 °C. Next, `Cc1cccc(-c2n[nH]cc2-c2ccc(F)c(-c3ccc(S(N)(=O)=O)c(F)c3)c2)n1`: 119 to 121 °C; `CCc1ncnc(Cl)c1I`: 56 to 57 °C; `CC12CCC(=O)C=C1CCC1C2CCC2(C)C(OC(=O)CBr)CCC12` (centres undefined): 144 to 145 °C. The result for `COCCOc1ccc(/C=C/C(=O)O)c(Oc2ncc(NC(=O)OC(C)(C)C)cc2C)c1` reads 159 to 160 °C. The result for `CCOC(=O)c1[nH]c2c(C)ccc(C)c2c1C(=O)OC` reads 128 to 129 °C. Turning to `CS(=O)(=O)c1ccc(-c2cnn(CC(F)(F)F)c(=O)c2-c2ccc(F)cc2)cc1`, the melting point was in the range of 177 to 179 °C. The compound `COc1ccc2c(n1)c(C=O)c1n2Cc2ccccc2-1` showed a melting point of 229 to 230 °C. Next, `CC(=O)c1cnc(C(=O)C(C)(C)C)cn1`: 41 to 42.5 °C. The result for `c1ccc(Oc2ccc(C(c3ccccc3)(c3ccccn3)n3ccnc3)cc2)cc1` (centres undefined) reads 137 to 140 °C.

Regarding `CC(C)c1cc(S(N)(=O)=O)c(C(C)C)cc1C(=O)O`, the melting point lay within 225 to 231 °C. Next, `OCC1OC(n2cnc3c(NCC(c4ccccc4)c4ccccc4)nc(Cl)nc32)C(O)C1O` (centres undefined): 120 to 123 °C; `COc1ccc(-c2ccc(C)c3occc23)cc1`: 40 to 41 °C; `Cn1c(=O)cc(-c2nc(-c3ccccc3)cs2)c2cc(C(=O)c3ccc(Cl)cc3)ccc21`: 216 °C. Consider `Cn1c(C(F)(F)F)cc(=O)n(C(c2ccc3c(c2)C(=O)NC3=O)c2nsc3ccccc23)c1=O` (centres undefined), for which the melting point is 204 to 208 °C.

Compound `Cc1ccc(OC(C)C)c(-c2cc(=O)c3cc(C(=O)O)ccc3o2)c1` displayed a melting point of 209 to 210 °C. The result for `O=C1CCc2ccc(Oc3c(F)cc(C(F)(F)F)cc3Cl)cc21` reads 75 °C; that for `COC(=O)c1cc(-n2c(-c3ccccc3)cc3c2CCCC3)ccc1O`, 141 to 142 °C. The result for `COc1cc(Cc2cnc(NCCCCc3ncccc3OC)[nH]c2=O)ccn1` reads 72 to 74 °C; that for `CCN1CCc2c(c(Br)cc([N+](=O)[O-])c2NC(C)=O)C1`, 168 °C; that for `Cc1cn(C(C)C(=O)N(C)C)nc1-c1ccccc1` (centres undefined), 87 to 89 °C. The result for `CCN(CC)Cc1cc(/C=C/C(=O)Nc2ccccc2C(=O)O)ccc1OC` reads 202 to 205 °C; that for `c1cc(CN2CCCCC2)cc(OCCCNc2ncnc3ccccc23)c1`, 111 °C; that for `N[C@@H](Cc1ccc(N(CCCl)CCCl)cc1)C(=O)N[C@@H](Cc1cccc(C2CCCC2)c1)C(=O)O`, 80 to 90 °C. In the case of `CC(NC(=S)NCC(COC(=O)C(C)(C)C)Cc1ccc(C(C)(C)C)cc1)c1ccc(NS(C)(=O)=O)cc1` (centres undefined), the melting point came to 87 °C. The result for `CC1Nc2ccc(Cl)c3cccc(c23)S1(=O)=O` (centres undefined) reads 150 °C; that for `CCCCNc1c(C(=O)OCC)c(C)nc(Cl)c1[N+](=O)[O-]`, 33 to 35 °C; that for `CN(C)Cc1cccc(OCCCNc2nc(-c3ccccc3)n[nH]2)c1`, 126 to 128 °C.
